Structures can show the parent of a compound that is named as a salt.
Target: T1, human DPP IV (Homo sapiens, UniProt P27487)
T1 construct: Human serum containing DPP-IV enzyme was used in an experiment after being diluted with assay buffer; from tissue; host or cells: human serum (diluted 10-fold)
Assay: In vitro DPP-IV inhibitory effect measurement test (human serum, fluorogenic substrate Gly-Pro-MCA)
Type: biochemical
Settings: human serum diluted 10-fold as enzyme source; substrate Glycyl-L-Proline 4-Methyl-Coumaryl-7-Amide 100 μM; room temperature; read-out: Inhibitory activity against human DPP IV IC50
Description: In Vitro DPP-IV Inhibitory Effect Measurement Test
Human serum containing DPP-IV enzyme was used in an experiment after being diluted with assay buffer (25 mM Tris-HCl, 140 mM NaCl, 10 mM KCl, pH 7.9) (finally, diluted 10-fold). Each of solutions of each test compound having various concentrations was added to the diluted serum and the resulting mixture was incubated at room temperature. Then, a substrate (Glycyl-L-Proline 4-Methyl-Coumaryl-7-Amide, Peptide Laboratories Co., Ltd.) was added thereto to a final concentration of 100 μM and the reaction was carried out at room temperature. Acetic acid was added to the reaction mixture to a final concentration of 12.5% to terminate the reaction, and the intensity of fluorescence at an excitation wavelength of 360 nm and a measuring wavelength of 460 nm was measured by the use of a fluorescent plate reader. A compound concentration for 50% inhibition was calculated as an IC50 value from enzyme inhibitory activity values obtained by adding each test compound to a plurality of concentrations.

T1 sequence (P27487 39-766 limits assumed): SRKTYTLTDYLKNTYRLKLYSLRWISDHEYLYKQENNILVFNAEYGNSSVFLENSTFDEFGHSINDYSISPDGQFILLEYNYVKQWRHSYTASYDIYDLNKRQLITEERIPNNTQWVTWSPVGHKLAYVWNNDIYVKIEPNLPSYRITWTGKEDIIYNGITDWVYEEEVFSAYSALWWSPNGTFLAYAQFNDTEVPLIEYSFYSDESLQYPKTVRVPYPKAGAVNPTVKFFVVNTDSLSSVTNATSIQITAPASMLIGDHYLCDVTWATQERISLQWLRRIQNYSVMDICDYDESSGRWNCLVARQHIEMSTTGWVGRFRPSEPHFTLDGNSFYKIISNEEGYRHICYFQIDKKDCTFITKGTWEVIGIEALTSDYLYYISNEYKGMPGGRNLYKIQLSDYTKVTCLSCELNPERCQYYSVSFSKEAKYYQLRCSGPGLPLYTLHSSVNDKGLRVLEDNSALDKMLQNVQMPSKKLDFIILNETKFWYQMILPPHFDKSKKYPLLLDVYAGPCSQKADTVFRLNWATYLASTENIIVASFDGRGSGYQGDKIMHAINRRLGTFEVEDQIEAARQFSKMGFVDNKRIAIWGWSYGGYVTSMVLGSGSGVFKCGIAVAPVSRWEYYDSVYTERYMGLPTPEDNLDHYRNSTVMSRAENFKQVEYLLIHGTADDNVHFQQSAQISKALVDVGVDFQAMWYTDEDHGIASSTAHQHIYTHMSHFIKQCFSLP

| Compound | IC50 [µM] |
| --- | --- |
| COC(=O)c1[nH]c(=O)c2c(Cc3ccccc3Cl)c(N3CCC[C@@H](N)C3)nn2c1C [Example 1, Methyl 2-[(3R)-3-aminopiperidin-1-yl]-3-(2-chlorobenzyl)-7-methyl-4-oxo-4,5-dihydropyrazolo[1,5-a]pyrazine-6-carboxylate hydrochloride] | 0.02 |
| N[C@@H]1CCCN(c2nn3cc[nH]c(=O)c3c2Cc2ccccc2Cl)C1 [Example 3, 2-[(3R)-3-Aminopiperidin-1-yl]-3-(2-chlorobenzyl)pyrazolo[1,5-a]pyrazin-4(5H)-one hydrochloride] | 0.03 |
| Cc1cn2nc(N3CCC[C@@H](N)C3)c(Cc3ccccc3Cl)c2c(=O)n1C [Example 4, 2-[(3R)-3-Aminopiperidin-1-yl]-3-(2-chlorobenzyl)-5,6-dimethylpyrazolo[1,5-a]pyrazin-4(5H)-one hydrochloride] | 0.037 |
| N[C@@H]1CCCN(c2nn3cc(-c4ccccc4)[nH]c(=O)c3c2Cc2ccccc2Cl)C1 [Example 5, 2-[(3R)-3-Aminopiperidin-1-yl]-3-(2-chlorobenzyl)-6-phenylpyrazolo[1,5-a]pyrazin-4(5H)-one hydrochloride] | 0.082 |
| N[C@@H]1CCCN(c2nn3cc(C(=O)O)[nH]c(=O)c3c2Cc2cc(F)ccc2Cl)C1 [Example 7, 2-[(3R)-3-Aminopiperidin-1-yl]-3-(2-chloro-5-fluorobenzyl)-4-oxo-4,5-dihydropyrazolo[1,5-a]pyrazine-6-carboxylic acid methanesulfonate] | 0.0007 |
| N[C@@H]1CCCN(c2nn3ccn(CC(=O)c4ccccc4)c(=O)c3c2Cc2ccccc2Cl)C1 [Example 8, 2-[(3R)-3-Aminopiperidin-1-yl]-3-(2-chlorobenzyl)-5-(2-oxo-2-phenylethyl)pyrazolo[1,5-a]pyrazin-4(5H)-one hydrochloride] | 0.007 |
| COc1ccccc1C(=O)Cn1ccn2nc(N3CCC[C@@H](N)C3)c(Cc3ccccc3Cl)c2c1=O [Example 9] | 0.071 |
| N[C@@H]1CCCN(c2nn3ccn(Cc4nccc5ccccc45)c(=O)c3c2Cc2ccccc2Cl)C1 [Example 10] | 0.0028 |
| CC(C)Oc1cccc(C(=O)Cn2ccn3nc(N4CCC[C@@H](N)C4)c(Cc4ccccc4Cl)c3c2=O)c1 [Example 11] | 0.025 |
| N#Cc1ccccc1Cn1ccn2nc(N3CCC[C@@H](N)C3)c(Cc3ccccc3Cl)c2c1=O [Example 12] | 0.024 |
| COc1cccc(C(=O)Cn2ccn3nc(N4CCC[C@@H](N)C4)c(Cc4ccccc4Cl)c3c2=O)c1 [Example 13] | 0.0061 |
| N[C@@H]1CCCN(c2nn3ccn(CCc4ccccc4)c(=O)c3c2Cc2ccccc2Cl)C1 [Example 14] | 0.061 |
| COC(=O)c1cn2nc(N3CCC[C@@H](N)C3)c(Cc3ccccc3Cl)c2c(=O)[nH]1 [Example 16] | 0.0025 |
| N[C@@H]1CCCN(c2nn3cc(C(=O)O)[nH]c(=O)c3c2Cc2ccccc2Cl)C1 [Example 17] | 0.0016 |

Now from value to compound:

| IC50 [µM] | Compound |
| --- | --- |
| 0.045 | Cc1c(C)n2nc(N3CCC[C@@H](N)C3)c(Cc3ccccc3Cl)c2c(=O)n1CC(=O)c1ccccc1 [Example 18] |
| 0.015 | N[C@@H]1CCCN(c2nn3cn[nH]c(=O)c3c2Cc2ccccc2Cl)C1 [Example 19] |
| 0.005 | Cn1c(C#N)cn2nc(N3CCC[C@@H](N)C3)c(Cc3ccccc3Cl)c2c1=O [Example 20] |
| 0.013 | Cn1c(C(N)=O)cn2nc(N3CCC[C@@H](N)C3)c(Cc3ccccc3Cl)c2c1=O [Example 21] |
| 0.028 | CCc1cn2nc(N3CCC[C@@H](N)C3)c(Cc3ccccc3Cl)c2c(=O)n1CC(=O)c1ccccc1 [Example 26] |
| 0.0009 | CCOC(=O)c1cn2nc(N3CCC[C@@H](N)C3)c(Cc3cc(F)ccc3Cl)c2c(=O)[nH]1 [Example 32, Ethyl 2-[(3R)-3-aminopiperidin-1-yl]-3-(2-chloro-5-fluorobenzyl)-4-oxo-4,5-dihydropyrazolo[1,5-a]pyrazine-6-carboxylate methanesulfonate] |
| 0.012 | Cn1ncn2nc(N3CCC[C@@H](N)C3)c(Cc3ccccc3Cl)c2c1=O [Example 33, 2-[(3R)-3-Aminopiperidin-1-yl]-3-(2-chlorobenzyl)-5-methylpyrazolo[1,5-d][1,2,4]triazin-4(5H)-one hydrochloride] |
| 0.0028 | N[C@@H]1CCCN(c2nn3cnn(CC(=O)c4ccccc4)c(=O)c3c2Cc2ccccc2Cl)C1 [Example 34, 2-[(3R)-3-Aminopiperidin-1-yl]-3-(2-chlorobenzyl)-5-(2-oxo-2-phenylethyl)pyrazolo[1,5-d][1,2,4]triazin-4(5H)-one hydrochloride] |
| 0.0023 | N[C@@H]1CCCN(c2nn3cnn(Cc4nccc5ccccc45)c(=O)c3c2Cc2ccccc2Cl)C1 [Example 35, 2-[(3R)-3-Aminopiperidin-1-yl]-3-(2-chlorobenzyl)-5-(isoquinolin-1-ylmethyl)pyrazolo[1,5-d][1,2,4]triazin-4(5H)-one hydrochloride] |
| 0.0096 | COC(=O)Cc1c(C(=O)OC)[nH]c(=O)c2c(Cc3ccccc3Cl)c(N3CCC[C@@H](N)C3)nn12 [Example 38, Methyl 2-[(3R)-3-aminopiperidin-1-yl]-3-(2-chlorobenzyl)-7-(2-methoxy-2-oxoethyl)-4-oxo-4,5-dihydropyrazolo[1,5-a]pyrazine-6-carboxylate hydrochloride] |
| 0.0021 | CCOC(=O)c1cn2nc(N3CCC[C@@H](N)C3)c(Cc3ccccc3Cl)c2c(=O)[nH]1 [Example 41, Ethyl 2-[(3R)-3-aminopiperidin-1-yl]-3-(2-chlorobenzyl)-4-oxo-4,5-dihydropyrazolo[1,5-a]pyrazine-6-carboxylate hydrochloride] |

From US20070082908A1, “Bicycle pyrazole derivative” (DAINIPPON SUMITOMO PHARMA CO., LTD., priority 2003, published 2007)
